Laboratory results from paper PMC9505538, “P-Glycoprotein (MDR1/ABCB1) Restricts Brain Accumulation of the Novel EGFR Inhibitor EAI045 and Oral Elacridar Coadministration Enhances Its Brain Accumulation and Oral Exposure” (Pharmaceuticals, 2022).

Settings: mouse, in vivo
Procedure: We subsequently analyzed the single and combined effects of Abcb1 and Abcg2 deficiencies on EAI045 plasma pharmacokinetics and tissue accumulation using male WT, Abcg2^-/-, Abcb1a/1b^-/-, and Abcb1a/1b;Abcg2^-/- mice. As we wanted to assess tissue concentrations while plasma concentrations were still relatively high; we terminated this experiment at 30 min.
Mice (Mus musculus) were bred in the Netherlands Cancer Institute and housed and handled according to institutional guidelines complying with Dutch and EU legislation. Animals used were WT, Abcb1a/1b^-/- [39], Abcg2^-/- [40], Abcb1a/1b;Abcg2^-/- [41], Cyp3a^-/- [42], and Oatp1a/1b^-/- [43] mice of a >99% FVB/N strain background. Homozygous CYP3A4 humanized transgenic mice (Cyp3aXAV) were generated by cross-breeding of transgenic mice with stable human CYP3A4 expression in the liver or intestine, respectively, in a Cyp3a^-/- background. Proper functionality of the knockout and transgenic strains was monitored by regular testing with a variety of drug substrates. All the mice used were between 10 and 15 weeks of age. Animals were kept in a temperature-controlled environment with a 12 h light/12 h dark cycle and received a standard diet (Transbreed, SDS Diets, Technilab-BMI, The Netherlands) and acidified water ad libitum. Depending on the type of experiment, 5 or 6 mice were tested in each experimental group. All experimental animal protocols, including power calculations, were ethically assessed and designed under the nationally approved DEC/CCD project AVD301002016595 (approval date, 10 August 2016) and evaluated and approved by the institutional animal care and use committee (IACUC) of the Netherlands Cancer Institute.
EAI045 was dissolved in dimethyl sulfoxide (DMSO) at a concentration of […], and then diluted with a mixture of polysorbate 80/ethanol (1:1, v/v), and further diluted with 5% (w/v) glucose in water to yield a concentration of 2 mg/mL. Final concentrations for DMSO, polysorbate 80, ethanol, and glucose in the dosing solution were 5%, 2.5%, 2.5%, and 4.5% (v/v/v/w), respectively. Elacridar hydrochloride was dissolved in DMSO at a concentration of 53 mg/mL, then diluted with a mixture of polysorbate 80, ethanol, and water [20:13:67, (v/v/v)] to yield a concentration of 5 mg/mL elacridar. The final oral dose of elacridar was 50 mg/kg body weight. All dosing solutions were prepared freshly on the day of experiment.
To minimize variation in absorption, mice were fasted for about 3 h before EAI045 was administered by gavage into the stomach (n = 5–6), using a blunt-ended needle. EAI045 was administered orally at dose of 20 mg/kg. Elacridar was administered orally at a dose of 50 mg/kg, 3 h prior to oral EAI045 administration. For the 24- or 4-h experiments, tail vein blood samplings were performed at 5 min, 30 min, 1, 2, 4, and 8 h, or 5 min, 15 min, 30 min, 1, and 2 h time points after oral administration of EAI045, respectively, using microvettes containing heparin. For the 30 min experiments, blood samplings were performed at 5, 10, and 20 min from the tail vein. At the last time point (24 h, 4 h, or 30 min), mice were anesthetized with isoflurane and blood was collected by cardiac puncture. Then, mice were sacrificed by cervical dislocation and brain, liver, spleen, kidneys, lung, small intestine with content (SIWC), and testis were rapidly removed and weighed. Tissues were homogenized on ice in appropriate volumes of 2% (w/v) BSA. Blood samples were centrifuged at 9000× g for 6 min at 4 °C immediately after collection. All samples were stored at −30 °C until analysis.

O=C(Nc1nccs1)C(c1cc(F)ccc1O)N1Cc2ccccc2C1=O (stereo not shown) [EAI045]
Kp.SIWC% (SIWC%-to-plasma ratio), fold decrease: 3.6 fold | SIWC%, fold decrease: 2.1 fold | brain-to-plasma ratio, fold increase: 5.2 fold | plasma AUC0–30min, fold increase: 2.1 fold
